This passage reports IC50 results from US10010539B2, “Pyrazole, triazole and tetrazole orexin receptor antagonists” (MERCK SHARP & DOHME CORP., priority 2014, dated 2018).

The target of assay [1] is human orexin-2 receptor (Homo sapiens (Human), UniProt O43614). Put plainly: FLIPR Ca2+ Flux Assay, orexin-2 receptor (hOX2R FLIPR). It is filed as cell-based. The note with it: CHO cells expressing the human orexin-2 receptor; agonist 70 pM Ala-6,12 human orexin-A. The protocol:
(§1) The utility of the compounds in accordance with the present invention as orexin receptor OX1R and/or OX2R antagonists may be readily determined without undue experimentation by methodology well known in the art, including the “FLIPR Ca^2+ Flux Assay” (Okumura et al., Biochem. Biophys. Res. Comm. 280:976-981, 2001). In a typical experiment the OX1 and OX2 receptor antagonistic activity of the compounds of the present invention was determined in accordance with the following experimental method. For intracellular calcium measurements, Chinese hamster ovary (CHO) cells expressing the rat orexin-1 receptor or the human orexin-2 receptor, are grown in Iscove's modified DMEM containing 2 mM L-glutamine, […], 1% hypoxanthine-thymidine supplement, 100 U/ml penicillin, 100 μg/ml streptomycin and 10% heat-inactivated fetal calf serum (FCS). The cells are seeded at 20,000 cells/well into Becton-Dickinson black 384-well clear bottom sterile plates coated with poly-D-lysine. All reagents were from GIBCO-Invitrogen Corp. The seeded plates are incubated overnight at 37° C. and 5% CO2. Ala-6,12 human orexin-A as the agonist is prepared as a 1 mM stock solution in 1% bovine serum albumin (BSA) and diluted in assay buffer (HBSS containing 20 mM HEPES, 0.1% BSA and 2.5 mM probenecid, pH7.4) for use in the assay at a final concentration of 70 pM. Test compounds are prepared as 10 mM stock solution in DMSO, then diluted in 384-well plates, first in DMSO, then assay buffer. On the day of the assay, cells are washed 3 times with 100 μl assay buffer and then incubated for 60 min (37° C., 5% CO2) in 60 μl assay buffer containing 1 μM Fluo-4AM ester, 0.02% pluronic acid, and 1% BSA. The dye loading solution is then aspirated and cells are washed 3 times with 100 μl assay buffer. 30 μl of that same buffer is left in each well. Within the Fluorescent Imaging Plate Reader (FLIPR, Molecular Devices), test compounds are added to the plate in a volume of 25 μl, incubated for 5 min and finally 25 μl of agonist is added. Fluorescence is measured for each well at 1 second intervals for 5 minutes and the height of each fluorescence peak is compared to the height of the fluorescence peak induced by 70 pM Ala-6,12 orexin-A with buffer in place of antagonist. For each antagonist, IC50 value (the concentration of compound needed to inhibit 50% of the agonist response) is determined. Alternatively, compound potency can be assessed by a radioligand binding assay (described in Bergman et. al. Bioorg. Med. Chem. Lett. 2008, 18, 1425-1430) in which the inhibition constant (Ki) is determined in membranes prepared from CHO cells expressing either the OX1 or OX2 receptor. The intrinsic orexin receptor antagonist activity of a compound which may be used in the present invention may be determined by these assays.

For assay [2], the target named is hOXIR (orexin-1 receptor) (Homo sapiens, UniProt O43613). Put plainly: FLIPR Ca2+ Flux Assay, orexin-1 receptor (hOXIR FLIPR). It is filed as cell-based. The note with it: CHO cells expressing the orexin-1 receptor (method text: rat; table head: hOXIR); agonist 70 pM Ala-6,12 human orexin-A. The protocol:
as §1
(Calcium assays in cells follow changes in intracellular calcium, usually with a dye or a luminescent sensor.)

A word on the IC50: it is the point on the concentration scale where inhibition reaches its midpoint. Read a low IC50 as inhibition by little substance.

human orexin-2 receptor, sequence (O43614 whole entry): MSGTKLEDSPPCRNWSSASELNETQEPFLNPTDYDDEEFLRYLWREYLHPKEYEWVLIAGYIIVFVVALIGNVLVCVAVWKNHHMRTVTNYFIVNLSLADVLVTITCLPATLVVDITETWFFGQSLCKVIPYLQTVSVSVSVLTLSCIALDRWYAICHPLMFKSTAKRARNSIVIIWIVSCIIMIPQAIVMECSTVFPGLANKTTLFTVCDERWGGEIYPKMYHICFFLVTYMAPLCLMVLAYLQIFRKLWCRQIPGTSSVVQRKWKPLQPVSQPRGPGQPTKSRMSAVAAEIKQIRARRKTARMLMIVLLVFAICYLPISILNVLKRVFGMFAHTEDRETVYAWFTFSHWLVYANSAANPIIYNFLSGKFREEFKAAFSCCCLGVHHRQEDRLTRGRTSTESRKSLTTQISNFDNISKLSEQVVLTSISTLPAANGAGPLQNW

In the case of `C[C@@H]1CC[C@@H](n2ncc(C(C)(C)O)n2)CN1C(=O)c1ccccc1CC(F)(F)F` [Example 9, ((2R,5R)-5-(4-(2-Hydroxypropan-2-yl)-2H-1,2,3-triazol-2-yl)-2-methylpiperidin-1-yl)(2-(2,2,2-trifluoroethyl)phenyl)methanone], the values for the IC50 in assay [1] and in assay [2] were 30 nM and over 10000 nM, respectively.
As to `CCOc1ccccc1C(=O)N1C[C@H](n2nc(C)c(C(C)(C)O)n2)CC[C@H]1C` [Example 69, 2-(2-{(3R,6R)-1-[(2-Ethoxyphenyl)carbonyl]-6-methylpiperidin-3-yl}-5-methyl-2H-1,2,3-triazol-4-yl)propan-2-ol], the IC50 is 7.9 nM in assay [1] and 1950 nM in assay [2].
On to `C[C@@H]1CC[C@@H](n2nnc(C(C)(C)O)n2)CN1C(=O)c1ccccc1-n1nccn1` [Example 74, 2-{2-[(3R,6R)-6-Methyl-1-{[2-(2H-1,2,3-triazol-2-yl)phenyl]carbonyl}piperidin-3-yl]-2H-tetrazol-5-yl}propan-2-ol], for which the figures for the IC50 in assay [1] and in assay [2] were 44.9 nM and over 10000 nM, respectively.
As to `C[C@@H]1CC[C@@H](n2ncc(C(C)(C)O)n2)CN1C(=O)c1cccnc1-n1nccn1` [Example 59, 2-{2-[(3R,6R)-6-Methyl-1-{[2-(2H-1,2,3-triazol-2-yl)pyridin-3-yl]carbonyl}piperidin-3-yl]-2H-1,2,3-triazol-4-yl}propan-2-ol], the figures for the IC50 in assay [1] and in assay [2] were 400 nM and over 10000 nM, respectively.
`C[C@@H]1CC[C@@H](n2ncc(C(C)(C)O)n2)CN1C(=O)c1cccnc1OCC(F)(F)F` [Example 14, ((2R,5R)-5-(4-(2-Hydroxypropan-2-yl)-2H-1,2,3-triazol-2-yl)-2-methylpiperidin-1-yl)(2-(2,2,2-trifluoroethoxy)pyridin-3-yl)methanone]: the results for the IC50 in assay [1] and in assay [2] were 15.9 nM and 8790 nM, respectively.
On to `C[C@@H]1CC[C@@H](n2ncc(C(C)(C)O)n2)CN1C(=O)c1ccc(F)cc1-n1nccn1` [Example 39, 2-{2-[(3R,6R)-1-{[4-fluoro-2-(2H-1,2,3-triazol-2-yl)phenyl]carbonyl}-6-methylpiperidin-3-yl]-2H-1,2,3-triazol-4-yl}propan-2-ol], for which the figures for the IC50 in assay [1] and in assay [2] were 27.1 nM and over 10000 nM, respectively.
In the same order, the values of `CCOc1ncccc1C(=O)N1C[C@H](n2nc(C)c(C(C)(C)O)n2)CC[C@H]1C` [Example 65, 2-(2-{(3R,6R)-1-[(2-Ethoxypyridin-3-yl)carbonyl]-6-methylpiperidin-3-yl}-5-methyl-2H-1,2,3-triazol-4-yl)propan-2-ol] are 15.1 nM and 2930 nM.
For the compound `COc1ccc(C(=O)N2C[C@H](n3cc(C(C)(C)O)cn3)CC[C@H]2C)c(C2CCC2)n1` [Example 100, 2-(1-{(3R,6R)-1-[(2-Cyclobutyl-6-methoxypyridin-3-yl)carbonyl]-6-methylpiperidin-3-yl}-1H-pyrazol-4-yl)propan-2-ol], the values for the IC50 in assay [1] and in assay [2] were 60.8 nM and over 10000 nM, respectively.
Take `C[C@@H]1CC[C@@H](n2ncc(C(C)(C)O)n2)CN1C(=O)c1sccc1-n1nccn1` [Example 32, 2-{2-[(3R,6R)-6-methyl-1-{[3-(2H-1,2,3-triazol-2-yl)thiophen-2-yl]carbonyl}piperidin-3-yl]-2H-1,2,3-triazol-4-yl}propan-2-ol]: the IC50 in assay [1] is 89.6 nM; in assay [2] it was over 10000 nM.
Consider `Cc1nn([C@@H]2CC[C@@H](C)N(C(=O)c3cccnc3OCC(F)(F)F)C2)nc1C(C)(C)O` [Example 68, 2-{5-mMethyl-2-[(3R,6R)-6-methyl-1-{[2-(2,2,2-trifluoroethoxy)pyridin-3-yl]carbonyl}piperidin-3-yl]-2H-1,2,3-triazol-4-yl}propan-2-ol], for which the IC50 in assay [1] turned out to be 6.9 nM; in assay [2] it was 1520 nM.
In the same order, the values of `C[C@@H]1CC[C@@H](n2cc(C(C)(C)O)cn2)CN1C(=O)c1cccnc1OCC(F)(F)F` [Example 94, 2-{1-[(3R,6R)-6-Methyl-1-{[2-(2,2,2-trifluoroethoxy)pyridin-3-yl]carbonyl}piperidin-3-yl]-1H-pyrazol-4-yl}propan-2-ol] are 37 nM and over 10000 nM.
